Results: patent US20080261994A1, “CYCLOPROPANE COMPOUNDS AND PHARMACEUTICAL USE THEREOF” (Japan Tobacco Inc., priority 2003, published 2008)
Like-named read-outs stand apart in the source and are kept apart here.

Assays:
Assay type in all cases: biochemical
MMP-1 = target: T1, MMP-1 (Homo sapiens, UniProt P03956); assay: MMP-1 inhibitory action (Type I collagen Activity Measurement kit, FITC-labeled collagen type I)
T1 sequence (P03956 100-469): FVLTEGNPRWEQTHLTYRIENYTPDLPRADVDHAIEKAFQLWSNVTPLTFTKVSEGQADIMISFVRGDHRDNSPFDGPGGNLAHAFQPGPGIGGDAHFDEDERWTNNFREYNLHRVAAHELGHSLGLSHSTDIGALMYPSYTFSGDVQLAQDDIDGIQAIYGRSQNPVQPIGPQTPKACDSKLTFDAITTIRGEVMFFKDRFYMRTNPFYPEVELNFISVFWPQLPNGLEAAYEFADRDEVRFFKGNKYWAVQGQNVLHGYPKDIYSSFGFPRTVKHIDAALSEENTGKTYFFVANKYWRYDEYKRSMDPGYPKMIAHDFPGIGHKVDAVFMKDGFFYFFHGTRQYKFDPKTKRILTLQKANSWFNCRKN

aggrecanase-1 = target: T2, aggrecanase-1 (Homo sapiens, UniProt O75173); assay: Aggrecanase-1 inhibitory action (Particle Assay, GAG release from aggrecan-containing polyacrylamide particles)
T2 sequence (O75173 213-837): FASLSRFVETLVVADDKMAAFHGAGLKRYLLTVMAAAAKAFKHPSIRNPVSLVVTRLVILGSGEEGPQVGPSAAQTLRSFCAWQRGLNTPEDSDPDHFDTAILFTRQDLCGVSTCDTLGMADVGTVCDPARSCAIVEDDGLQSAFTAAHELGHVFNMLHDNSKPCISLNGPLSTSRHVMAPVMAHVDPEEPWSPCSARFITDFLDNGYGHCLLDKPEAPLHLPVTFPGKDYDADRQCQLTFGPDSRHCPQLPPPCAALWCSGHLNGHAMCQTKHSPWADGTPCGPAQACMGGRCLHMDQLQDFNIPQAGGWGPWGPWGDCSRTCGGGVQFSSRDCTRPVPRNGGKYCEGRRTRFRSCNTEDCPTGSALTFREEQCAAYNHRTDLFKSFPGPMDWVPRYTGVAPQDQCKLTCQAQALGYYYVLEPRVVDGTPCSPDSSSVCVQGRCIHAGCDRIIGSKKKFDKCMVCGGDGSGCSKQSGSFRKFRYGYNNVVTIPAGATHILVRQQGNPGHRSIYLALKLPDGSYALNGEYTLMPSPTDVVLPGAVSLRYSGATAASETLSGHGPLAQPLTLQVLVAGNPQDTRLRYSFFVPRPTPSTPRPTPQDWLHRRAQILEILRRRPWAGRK
Procedure, shortened: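 Readout was dimethylmethylene blue absorbance (595 nm) of glycosaminoglycan liberated into supernatant, calibrated with whale chondroitin sulfate. Substrate was aggrecan in polyacrylamide particles, digested 15 h at 37° C in Tris-HCl; TC50 (μM) derived from inhibition relative to no-enzyme and no-inhibitor controls.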

Recombinant Human MMP-13 = target: T3, Recombinant Human MMP-13 (Homo sapiens, UniProt P45452); assay: MMP-13 inhibitory activity (MMP-13 specific fluorescent substrate with quencher)
T3 construct: purchased R&D systems 511-MM
Procedure, shortened: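 IC50 (μM) derived from % inhibition, normalised to wells without enzyme and without inhibitor, fluorescence read at 325/405 nm. Enzyme and compound preceded addition of the quenched 7-MCA…DPA substrate; Tris-HCl buffer, 25 °C for 1 h, acetic-acid stop.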

[1] = MMP-1 inhibitory action, FITC-labeled collagen type I, 37° C. for 3 hr, read-out: IC50 MMP1 (Experimental Example 2)
[2] = aggrecanase-1 inhibitory action, read-out: IC50 AG1 (Experimental Example 1)
[3] = Recombinant Human MMP-13, fluorescent substrate, 25° C. for 1 h, read-out: IC50 MMP13 (Experimental Example 3)
[4] = Experimental Example 2, read-out: IC50 MMP1
[5] = Experimental Example 1, read-out: IC50 AG1
[6] = Experimental Example 3, read-out: IC50 MMP13

Row | Structure (SMILES) | IC50 (MMP-1; [1]) | IC50 (aggrecanase-1; [2]) | IC50 (Recombinant Human MMP-13; [3]) | IC50 (MMP-1; [4]) | IC50 (aggrecanase-1; [5]) | IC50 (Recombinant Human MMP-13; [6])
1 | Cn1nc(-c2ccc(S(=O)(=O)NC3(C(=O)O)CC3c3ccccc3)s2)cc1C(F)(F)F (stereo not drawn) [Example 2-16] | ≥ 10 µM | ≥ 10 µM | < 1 µM |  |  | 
2 | CN(C)C(=O)CCc1ccccc1C1CC1(NS(=O)(=O)c1ccc(-c2cc(C(F)(F)F)on2)s1)C(=O)O (stereo not drawn) [Example 2-231] | ≥ 1 µM | < 1 µM | < 0.1 µM |  |  | 
3 | O=C(Cc1ccccc1C1CC1(NS(=O)(=O)c1ccc(-c2cc(C(F)(F)F)on2)s1)C(=O)O)N1CCOCC1 (stereo not drawn) [Example 2-243] | ≥ 1 µM | < 1 µM | < 0.1 µM |  |  | 
4 | C[C@]1(c2ccccc2)C[C@@]1(NS(=O)(=O)c1ccc(-n2cc(CO)cn2)s1)C(=O)O [Example 2-603] |  |  |  | < 1 µM | < 1 µM | < 1 µM
5 | C[C@]1(c2cccc(Cl)c2)C[C@@]1(NS(=O)(=O)c1ccc(-c2cc(C(F)(F)F)on2)s1)C(=O)O [Example 2-619] |  |  |  | < 1 µM | < 0.1 µM | < 1 µM
6 | COCCCC1(c2ccccc2)CC1(NS(=O)(=O)c1ccc(-n2cc(Cl)cn2)s1)C(=O)O (stereo not drawn) [Example 2-560] |  |  |  | ≥ 1 µM | < 1 µM | < 1 µM
7 | C[C@]1(c2ccccc2)C[C@@]1(NS(=O)(=O)c1ccc(-c2ccc(C#N)cc2)s1)C(=O)O [Example 2-567] |  |  |  | ≥ 1 µM | < 0.1 µM | < 1 µM
8 | O=C(c1ccccc1C1CC1(NS(=O)(=O)c1ccc(-c2ccc(Cl)cc2)s1)C(=O)O)N1CCOCC1 (stereo not drawn) [Example 2-76] | ≥ 10 µM | < 0.1 µM | < 1 µM |  |  | 
9 | CC(C)N1CCN(c2ccc(S(=O)(=O)N[C@@]3(C(=O)O)C[C@]3(C)c3ccccc3)s2)CC1 [Example 2-443] |  |  |  | ≥ 10 µM | ≥ 1 µM | ≥ 1 µM
10 | O=C(O)C1(NS(=O)(=O)c2ccc(-c3ccc(Cl)cc3)s2)CC1c1ccc(Br)cc1 (stereo not drawn) [Example 2-202] | ≥ 10 µM | < 1 µM | < 1 µM |  |  | 
11 | O=C(Nc1cccc(C2CC2(NS(=O)(=O)c2ccc(-c3cc(C(F)(F)F)on3)s2)C(=O)O)c1)N1CCOCC1 (stereo not drawn) [Example 2-250] | ≥ 1 µM | < 1 µM | < 0.1 µM |  |  | 
12 | CC(C)(O)C#Cc1ccc(S(=O)(=O)N[C@@]2(C(=O)O)C[C@@H]2c2ccccc2)s1 [Example 2-130] | ≥ 10 µM | ≥ 1 µM | ≥ 1 µM |  |  | 
13 | CC1[C@H](c2ccccc2)[C@]1(NS(=O)(=O)c1ccc(-n2ccc(C(F)(F)F)n2)s1)C(=O)O (stereo partly drawn) [Example 2-514] |  |  |  | ≥ 1 µM | < 1 µM | < 1 µM
14 | CNC(=O)[C@]1(NS(=O)(=O)c2ccc(-c3cc(C(F)(F)F)on3)s2)C(C)[C@@H]1c1ccccc1 (stereo partly drawn) [Example 2-297] |  |  |  | ≥ 10 µM | ≥ 1 µM | ≥ 1 µM
15 | CC1CCC(c2ccc(S(=O)(=O)N[C@@]3(C(=O)O)C[C@]3(C)c3ccccc3)cc2)CC1 (stereo partly drawn) [Example 2-436] |  |  |  | ≥ 10 µM | ≥ 1 µM | ≥ 1 µM
16 | O=C(O)C1(NS(=O)(=O)c2ccc(-c3ccc(Cl)cc3)s2)CC1c1cccc(OCCO)c1 (stereo not drawn) [Example 1-86] | ≥ 1 µM | < 1 µM | < 1 µM |  |  | 
17 | O=C(O)C1(NS(=O)(=O)c2ccc(-c3cc(C(F)(F)F)on3)s2)CC1c1ccccc1CCO (stereo not drawn) [Example 2-240] | ≥ 1 µM | < 1 µM | < 1 µM |  |  | 
18 | CCNC(=O)N1CCN(S(=O)(=O)N[C@@]2(C(=O)O)C[C@@H]2c2ccccc2)CC1 [Example 2-512] |  |  |  | ≥ 1 µM | ≥ 1 µM | ≥ 1 µM
19 | O=C(O)C1(NS(=O)(=O)c2ccc(-c3ccc(Cl)cc3)s2)CC1(CO)c1ccccc1 (stereo not drawn) [Example 2-229] | ≥ 10 µM | < 1 µM | < 1 µM |  |  | 
